Assay results taken from ChEMBL document CHEMBL5291721, “A preclinical secondary pharmacology resource illuminates target-adverse drug reaction associations of marketed drugs” (Nat Commun, 2023).

Key:
[1] = target: T1, Progesterone receptor (Homo sapiens, UniProt P06401); assay type: functional
T1 sequence (P06401 whole entry): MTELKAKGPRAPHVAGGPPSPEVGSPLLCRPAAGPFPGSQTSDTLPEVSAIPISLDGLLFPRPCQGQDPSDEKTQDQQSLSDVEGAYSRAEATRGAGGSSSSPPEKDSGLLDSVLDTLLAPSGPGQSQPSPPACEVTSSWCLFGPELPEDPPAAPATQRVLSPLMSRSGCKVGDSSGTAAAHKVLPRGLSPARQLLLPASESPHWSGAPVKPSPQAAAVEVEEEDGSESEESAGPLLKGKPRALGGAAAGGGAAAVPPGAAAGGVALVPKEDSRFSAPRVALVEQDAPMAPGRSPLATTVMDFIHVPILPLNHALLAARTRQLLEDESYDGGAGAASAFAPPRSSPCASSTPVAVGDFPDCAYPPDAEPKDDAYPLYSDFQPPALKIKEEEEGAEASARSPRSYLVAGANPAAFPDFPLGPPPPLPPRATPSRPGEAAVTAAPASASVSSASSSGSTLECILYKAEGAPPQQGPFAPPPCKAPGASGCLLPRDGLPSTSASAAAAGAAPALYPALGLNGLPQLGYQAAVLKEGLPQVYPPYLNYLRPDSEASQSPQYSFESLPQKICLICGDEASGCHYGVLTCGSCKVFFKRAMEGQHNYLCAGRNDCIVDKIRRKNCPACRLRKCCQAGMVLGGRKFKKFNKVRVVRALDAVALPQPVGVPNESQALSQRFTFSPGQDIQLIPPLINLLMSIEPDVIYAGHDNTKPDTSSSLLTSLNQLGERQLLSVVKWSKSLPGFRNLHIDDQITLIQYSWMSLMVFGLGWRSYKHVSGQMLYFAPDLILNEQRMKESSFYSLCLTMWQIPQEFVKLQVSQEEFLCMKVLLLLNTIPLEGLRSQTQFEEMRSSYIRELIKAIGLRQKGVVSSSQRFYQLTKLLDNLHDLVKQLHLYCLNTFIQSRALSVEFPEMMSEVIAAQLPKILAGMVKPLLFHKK

[2] = target: Vasopressin V1a receptor (Homo sapiens, UniProt P37288)
[3] = target: T2, Adenosine receptor A1 (Homo sapiens, UniProt P30542)
T2 sequence (P30542 whole entry): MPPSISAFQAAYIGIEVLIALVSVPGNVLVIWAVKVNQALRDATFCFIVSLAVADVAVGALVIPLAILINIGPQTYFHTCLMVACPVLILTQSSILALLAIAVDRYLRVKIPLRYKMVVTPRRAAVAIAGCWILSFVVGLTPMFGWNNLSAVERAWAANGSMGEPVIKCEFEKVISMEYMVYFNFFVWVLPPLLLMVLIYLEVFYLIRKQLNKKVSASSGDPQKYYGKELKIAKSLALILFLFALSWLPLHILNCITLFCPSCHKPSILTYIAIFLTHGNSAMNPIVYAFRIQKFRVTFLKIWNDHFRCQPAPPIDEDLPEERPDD

[4] = target: Vasopressin V2 receptor (Homo sapiens, UniProt P30518)
[5] = target: T3, Type-1 angiotensin II receptor (Homo sapiens, UniProt P30556)
T3 sequence (P30556 whole entry): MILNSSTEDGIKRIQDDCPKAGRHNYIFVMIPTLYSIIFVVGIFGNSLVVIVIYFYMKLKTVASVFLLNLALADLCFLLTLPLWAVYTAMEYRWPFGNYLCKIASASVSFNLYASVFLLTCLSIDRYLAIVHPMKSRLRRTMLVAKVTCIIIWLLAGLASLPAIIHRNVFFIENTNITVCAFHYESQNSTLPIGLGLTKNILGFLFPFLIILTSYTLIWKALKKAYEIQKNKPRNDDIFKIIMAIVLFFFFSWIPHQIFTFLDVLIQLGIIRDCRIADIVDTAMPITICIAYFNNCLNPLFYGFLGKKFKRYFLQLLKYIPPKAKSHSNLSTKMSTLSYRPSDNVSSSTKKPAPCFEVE

[6] = target: Voltage-dependent L-type calcium channel subunit alpha-1C (Rattus norvegicus, UniProt P22002); assay type: functional
[7] = target: Gamma-aminobutyric acid receptor subunit alpha-1 (Rattus norvegicus, UniProt P62813); assay type: functional
[8] = target: T4, Alpha-2B adrenergic receptor (Homo sapiens, UniProt P18089)
T4 sequence (P18089 whole entry): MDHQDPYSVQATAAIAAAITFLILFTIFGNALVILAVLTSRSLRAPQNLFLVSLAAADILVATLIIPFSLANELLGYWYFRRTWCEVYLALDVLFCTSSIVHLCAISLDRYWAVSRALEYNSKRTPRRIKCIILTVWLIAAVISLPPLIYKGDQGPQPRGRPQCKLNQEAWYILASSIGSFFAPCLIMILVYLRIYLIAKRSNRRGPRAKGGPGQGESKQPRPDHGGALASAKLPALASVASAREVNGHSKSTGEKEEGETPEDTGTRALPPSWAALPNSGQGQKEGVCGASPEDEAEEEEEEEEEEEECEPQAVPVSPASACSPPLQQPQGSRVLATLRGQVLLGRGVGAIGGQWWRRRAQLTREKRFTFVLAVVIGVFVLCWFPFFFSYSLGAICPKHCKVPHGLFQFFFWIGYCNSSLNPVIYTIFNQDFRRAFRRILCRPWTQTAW

[9] = target: T1, Progesterone receptor; assay type: functional; remark: listed apart in the source
[10] = target: Sodium-dependent noradrenaline transporter (Homo sapiens, UniProt P23975)
[11] = target: T5, 5-hydroxytryptamine receptor 1A (Homo sapiens, UniProt P08908); assay type: functional, cell-based
T5 sequence (P08908 whole entry): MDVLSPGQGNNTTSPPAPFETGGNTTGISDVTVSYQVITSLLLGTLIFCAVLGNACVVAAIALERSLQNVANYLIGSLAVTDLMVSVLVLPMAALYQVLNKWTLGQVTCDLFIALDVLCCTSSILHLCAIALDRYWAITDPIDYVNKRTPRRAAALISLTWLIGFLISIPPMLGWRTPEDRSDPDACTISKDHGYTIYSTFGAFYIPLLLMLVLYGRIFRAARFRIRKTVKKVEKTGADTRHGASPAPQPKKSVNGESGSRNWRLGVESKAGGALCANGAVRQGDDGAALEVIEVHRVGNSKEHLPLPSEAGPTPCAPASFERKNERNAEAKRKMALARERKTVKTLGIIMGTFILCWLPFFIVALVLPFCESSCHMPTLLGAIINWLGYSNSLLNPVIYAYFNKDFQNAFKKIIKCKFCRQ

[12] = target: Cannabinoid receptor 1 (Homo sapiens, UniProt P21554); assay type: functional, cell-based
Note: assay procedure not described here.

Sequence of Vasopressin V1a receptor (P37288 whole entry): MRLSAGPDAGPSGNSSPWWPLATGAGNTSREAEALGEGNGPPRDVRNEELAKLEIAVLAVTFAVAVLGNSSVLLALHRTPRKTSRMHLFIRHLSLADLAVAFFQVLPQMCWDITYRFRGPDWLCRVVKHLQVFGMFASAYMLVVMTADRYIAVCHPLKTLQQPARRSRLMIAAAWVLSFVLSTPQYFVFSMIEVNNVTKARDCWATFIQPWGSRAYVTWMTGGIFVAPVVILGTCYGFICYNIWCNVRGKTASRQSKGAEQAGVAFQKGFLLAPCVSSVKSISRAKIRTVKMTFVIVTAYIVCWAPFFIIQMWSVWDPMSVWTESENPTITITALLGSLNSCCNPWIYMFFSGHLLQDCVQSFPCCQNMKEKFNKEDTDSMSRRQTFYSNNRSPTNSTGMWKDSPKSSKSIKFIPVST
Sequence of Sodium-dependent noradrenaline transporter (P23975 whole entry): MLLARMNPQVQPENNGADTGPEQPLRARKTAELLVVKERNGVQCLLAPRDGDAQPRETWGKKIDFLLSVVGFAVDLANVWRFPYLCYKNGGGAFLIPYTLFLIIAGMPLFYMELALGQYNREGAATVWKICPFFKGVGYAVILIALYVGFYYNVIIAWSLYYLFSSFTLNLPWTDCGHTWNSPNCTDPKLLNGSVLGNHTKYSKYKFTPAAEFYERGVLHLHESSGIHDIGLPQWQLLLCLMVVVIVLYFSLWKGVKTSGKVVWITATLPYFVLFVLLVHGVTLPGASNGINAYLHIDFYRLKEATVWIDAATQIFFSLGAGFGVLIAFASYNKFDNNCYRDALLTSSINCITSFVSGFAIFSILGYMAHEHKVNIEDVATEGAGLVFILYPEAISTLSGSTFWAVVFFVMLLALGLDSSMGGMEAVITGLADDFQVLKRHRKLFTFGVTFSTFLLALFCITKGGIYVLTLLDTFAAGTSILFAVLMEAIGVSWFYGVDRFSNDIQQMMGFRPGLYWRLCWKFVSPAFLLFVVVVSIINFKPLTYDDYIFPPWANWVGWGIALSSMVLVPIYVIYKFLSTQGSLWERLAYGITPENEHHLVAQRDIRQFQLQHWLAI
Sequence of Voltage-dependent L-type calcium channel subunit alpha-1C (P22002 whole entry): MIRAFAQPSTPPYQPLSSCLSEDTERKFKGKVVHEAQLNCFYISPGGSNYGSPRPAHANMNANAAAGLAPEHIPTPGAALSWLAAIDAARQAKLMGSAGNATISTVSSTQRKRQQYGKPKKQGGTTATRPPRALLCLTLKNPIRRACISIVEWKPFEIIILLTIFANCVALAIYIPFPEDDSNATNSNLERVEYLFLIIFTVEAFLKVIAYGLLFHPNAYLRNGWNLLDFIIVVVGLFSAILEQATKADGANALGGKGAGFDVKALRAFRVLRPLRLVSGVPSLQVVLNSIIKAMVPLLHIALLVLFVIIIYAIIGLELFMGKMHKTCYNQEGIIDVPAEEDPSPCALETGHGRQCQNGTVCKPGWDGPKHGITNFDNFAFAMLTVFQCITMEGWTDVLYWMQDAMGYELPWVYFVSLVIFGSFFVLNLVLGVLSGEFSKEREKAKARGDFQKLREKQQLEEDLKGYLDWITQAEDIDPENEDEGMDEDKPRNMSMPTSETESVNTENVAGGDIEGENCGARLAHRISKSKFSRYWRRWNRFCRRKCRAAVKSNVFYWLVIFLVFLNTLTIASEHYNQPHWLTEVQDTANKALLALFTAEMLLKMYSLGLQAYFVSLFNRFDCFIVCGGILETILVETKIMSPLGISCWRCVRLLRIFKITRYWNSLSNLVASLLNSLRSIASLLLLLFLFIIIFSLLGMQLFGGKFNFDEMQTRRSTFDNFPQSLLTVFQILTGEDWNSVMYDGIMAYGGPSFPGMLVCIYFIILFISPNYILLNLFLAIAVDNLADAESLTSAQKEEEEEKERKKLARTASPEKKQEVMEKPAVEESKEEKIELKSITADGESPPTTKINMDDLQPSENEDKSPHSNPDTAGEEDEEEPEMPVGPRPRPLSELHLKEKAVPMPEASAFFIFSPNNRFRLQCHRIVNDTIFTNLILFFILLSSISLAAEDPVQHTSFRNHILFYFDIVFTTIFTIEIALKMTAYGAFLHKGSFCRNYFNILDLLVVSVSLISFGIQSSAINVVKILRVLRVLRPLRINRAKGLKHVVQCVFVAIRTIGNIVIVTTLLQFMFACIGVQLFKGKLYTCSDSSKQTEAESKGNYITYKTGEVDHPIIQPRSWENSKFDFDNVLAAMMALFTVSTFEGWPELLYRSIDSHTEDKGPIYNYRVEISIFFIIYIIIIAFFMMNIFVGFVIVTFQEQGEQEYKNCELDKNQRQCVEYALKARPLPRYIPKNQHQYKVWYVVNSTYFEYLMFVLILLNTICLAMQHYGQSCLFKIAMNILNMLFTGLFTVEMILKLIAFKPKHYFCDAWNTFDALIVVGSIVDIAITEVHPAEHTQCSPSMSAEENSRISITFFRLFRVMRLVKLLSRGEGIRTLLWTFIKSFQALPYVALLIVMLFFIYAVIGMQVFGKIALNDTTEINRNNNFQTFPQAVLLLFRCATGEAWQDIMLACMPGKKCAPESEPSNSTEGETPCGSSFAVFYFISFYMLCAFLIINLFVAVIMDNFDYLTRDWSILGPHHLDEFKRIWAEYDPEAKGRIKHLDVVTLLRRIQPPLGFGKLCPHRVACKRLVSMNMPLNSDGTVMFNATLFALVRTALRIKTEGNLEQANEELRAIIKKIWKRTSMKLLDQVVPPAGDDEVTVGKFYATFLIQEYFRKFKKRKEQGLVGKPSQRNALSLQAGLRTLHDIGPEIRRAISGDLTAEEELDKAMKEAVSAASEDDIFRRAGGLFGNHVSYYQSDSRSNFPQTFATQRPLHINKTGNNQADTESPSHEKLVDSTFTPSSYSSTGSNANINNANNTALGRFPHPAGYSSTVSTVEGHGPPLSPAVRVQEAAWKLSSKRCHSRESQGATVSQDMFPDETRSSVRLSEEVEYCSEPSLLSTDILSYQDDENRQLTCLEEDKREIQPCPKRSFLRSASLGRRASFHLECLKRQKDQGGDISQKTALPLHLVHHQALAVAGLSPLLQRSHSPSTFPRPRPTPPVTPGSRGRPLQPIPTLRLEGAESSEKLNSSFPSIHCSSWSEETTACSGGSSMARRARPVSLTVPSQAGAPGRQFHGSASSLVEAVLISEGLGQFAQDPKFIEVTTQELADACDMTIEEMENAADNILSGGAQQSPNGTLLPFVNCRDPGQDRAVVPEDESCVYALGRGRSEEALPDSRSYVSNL
Sequence of Gamma-aminobutyric acid receptor subunit alpha-1 (P62813 whole entry): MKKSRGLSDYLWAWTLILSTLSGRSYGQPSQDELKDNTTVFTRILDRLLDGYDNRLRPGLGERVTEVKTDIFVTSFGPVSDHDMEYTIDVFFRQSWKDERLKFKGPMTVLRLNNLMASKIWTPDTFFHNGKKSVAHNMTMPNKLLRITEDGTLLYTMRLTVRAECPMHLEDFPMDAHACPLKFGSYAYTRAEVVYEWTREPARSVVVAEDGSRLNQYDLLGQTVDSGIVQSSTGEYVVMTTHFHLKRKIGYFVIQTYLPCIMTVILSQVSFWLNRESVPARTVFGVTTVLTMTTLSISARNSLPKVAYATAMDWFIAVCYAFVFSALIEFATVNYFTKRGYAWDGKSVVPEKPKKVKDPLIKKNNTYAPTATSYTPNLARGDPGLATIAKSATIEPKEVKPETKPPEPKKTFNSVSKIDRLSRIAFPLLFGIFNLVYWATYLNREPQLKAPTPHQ
Sequence of Vasopressin V2 receptor (P30518 whole entry): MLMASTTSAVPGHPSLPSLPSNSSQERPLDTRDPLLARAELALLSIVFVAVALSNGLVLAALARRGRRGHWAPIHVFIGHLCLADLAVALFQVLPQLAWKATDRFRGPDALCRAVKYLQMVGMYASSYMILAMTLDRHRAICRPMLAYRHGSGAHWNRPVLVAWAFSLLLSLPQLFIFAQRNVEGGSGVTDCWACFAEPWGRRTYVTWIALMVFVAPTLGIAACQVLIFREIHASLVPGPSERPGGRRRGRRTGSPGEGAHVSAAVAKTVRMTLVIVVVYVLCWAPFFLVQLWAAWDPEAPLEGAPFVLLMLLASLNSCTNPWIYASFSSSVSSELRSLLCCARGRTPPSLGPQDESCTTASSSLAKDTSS
Sequence of Cannabinoid receptor 1 (P21554 whole entry): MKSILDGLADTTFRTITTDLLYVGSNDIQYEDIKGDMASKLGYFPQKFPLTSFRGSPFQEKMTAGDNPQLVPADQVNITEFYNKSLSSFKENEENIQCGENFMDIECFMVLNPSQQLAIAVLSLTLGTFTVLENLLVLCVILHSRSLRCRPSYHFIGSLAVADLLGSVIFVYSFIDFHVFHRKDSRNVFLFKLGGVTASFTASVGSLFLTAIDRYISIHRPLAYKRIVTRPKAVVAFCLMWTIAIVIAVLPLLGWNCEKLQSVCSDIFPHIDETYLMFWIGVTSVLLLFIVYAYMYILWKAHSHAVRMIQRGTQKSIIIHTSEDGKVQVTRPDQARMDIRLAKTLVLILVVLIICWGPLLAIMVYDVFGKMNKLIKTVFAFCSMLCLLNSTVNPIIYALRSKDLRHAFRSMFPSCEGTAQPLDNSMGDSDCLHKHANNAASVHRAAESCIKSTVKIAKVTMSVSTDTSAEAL

Row | Structure (SMILES) | AC50 [1] [µM] | AC50 [2] [µM] | AC50 [3] [µM] | AC50 [4] [µM] | AC50 [5] [µM] | AC50 [6] [µM] | AC50 [7] [µM] | AC50 [8] [µM] | AC50 [9] [µM] | AC50 [10] [µM] | AC50 [11] [µM] | AC50 [12] [µM]
1 | C[N+]1(C)CCC(=C(c2ccccc2)c2ccccc2)CC1 | > 10 | > 30 | > 30 | > 30 | > 10 | > 10 | > 10 | > 10 | > 10 | > 10 | > 10 | –
2 | CN(C)Cc1nnc2n1-c1ccc(Cl)cc1C(c1ccccc1)=NC2 [ADINAZOLAM] | > 10 | > 10 | > 10 | > 10 | > 10 | > 10 | 0.19 | > 10 | > 10 | > 10 | > 10 | –
3 | CN(C)C/C=C/C(=O)Nc1cc2c(Nc3ccc(F)c(Cl)c3)ncnc2cc1O[C@H]1CCOC1 [AFATINIB] | > 30 | > 30 | > 30 | > 30 | > 30 | – | > 30 | 0.87 | > 30 | > 30 | > 30 | > 30
4 | Cc1ccccc1-n1c(CF)nc2ccc(N)cc2c1=O [AFLOQUALONE] | > 30 | > 30 | > 30 | > 30 | > 30 | > 10 | > 10 | > 10 | > 30 | > 30 | > 10 | –
5 | C/C=C(/C(=C/C)c1ccc(O)cc1)c1ccc(O)cc1 [DIENESTROL] | > 30 | > 10 | > 30 | > 10 | > 10 | > 10 | > 10 | > 10 | > 30 | > 30 | > 10 | –
6 | C[C@@H]1C[C@H]2[C@@H]3C[C@H](F)C4=CC(=O)C=C[C@]4(C)[C@@]3(F)[C@@H](O)C[C@]2(C)[C@@]1(OC(=O)c1ccco1)C(=O)SCF [FLUTICASONE FUROATE] | – | > 10 | > 10 | > 10 | > 10 | > 10 | > 10 | > 10 | – | > 10 | > 10 | > 30
7 | COc1ccc([C@@H]2CC(=O)c3c(O)cc(O)cc3O2)cc1O [HESPERETIN] | > 10 | > 10 | > 10 | > 10 | > 10 | > 10 | > 10 | > 10 | > 10 | > 10 | > 10 | –
